Measured values from patent publication US20230382940A1, “ANTIVIRAL COMPOUNDS AND METHODS OF MAKING AND USING THE SAME” (Gilead Sciences, Inc., priority 2022, published 2023).

What was measured:
[1] = system: Human Rhinovirus 14 (HRV14); assay: H1-HeLa HRV-CTG 384-well assay, HRV14, Example X; type: cell-based; conditions: Rhinovirus B, 96 h; H1-HeLa cells, HRV14 MOI 1.0, 4 days, Celltiter-Glo; read-out: EC50 H1-HeLa_HRV 14_HRV-CTG 384-well Assay (per Ex. X)
Excerpt: (§1) Example X: H1-HeLa HRV-CTG 384-Well Assay
(§2) H1-Hela cell line (ATCC, Manassas, VA, Cat #CRL-1958) was maintained in Dulbecco's […] (DMEM) (Corning, New York, NY, Cat #15-018CM) supplemented with 10% fetal bovine serum (FBS) (Hyclone, Logan, UT, Cat #SH30071-03), and 1× Penicillin-Streptomycin-L-Glutamine (Corning, New York, NY, Cat #30-009-CI). Cells were passaged 2 times per week to maintain sub-confluent densities and were used for experiments at passage 5-30. The Human Rhinovirus 1B (HRV1B) (ATCC, Manassas, VA, Cat #VR-1645), Human Rhinovirus 14 (HRV14) (ATCC, Manassas, VA, Cat #VR-284), and Human Rhinovirus 16 (HRV16) (ATCC, Manassas, VA, Cat #BR-283) was obtained through ATCC. Viral infection was monitored by determining viability of H1-HeLa cells as described below.
(§3) Test molecules are prepared in 100% DMSO in 384-well polypropylene plates (Greiner, Monroe, NC, Cat #784201) with 8 compounds per plate in grouped replicates of 4 at 10 serially diluted concentrations (1:3). The serially diluted compounds were transferred to low dead volume Echo plates (Labcyte, Sunnyvale, CA, Cat #LP-0200).
(§4) The test compounds were spotted to 384-well assay plates (Greiner, Monroe, NC, Cat #781091) at 200 nL per well using an Echo acoustic dispenser (Labcyte, Sunnyvale, CA). H1-HeLa cells were harvested and suspended in DMEM (supplemented with 2% FBS and 1× Penicillin-Streptomycin-L-Glutamine) and seeded to the pre-spotted assay plates at 5,000 cells per well in 30 μL. HRV1B, HRV14, and HRV16 was diluted in DMEM (supplemented with 2% FBS and 1× Penicillin-Streptomycin-L-Glutamine) at 97.1 million Infectious Units (IU) per mL, 151 million IU per mL and 221 million IU per mL respectively. 10 μL of virus per well was added to the assay plates containing cells and compounds, for an MOI of 0.5, 1.0, and 0.25 respectively. The assay plates were incubated for 4 days at 37° C. and 5% CO2. At the end of incubation, Celltiter-Glo (Promega, Madison, WI, Cat #G7573) was prepared. The assay plates and Celltiter-Glo reagent were equilibrated to room temperature for at least 15 minutes. 40 μL per well of Celltiter-Glo reagent was added and the plates were incubated at room temperature for 15 minutes before reading the luminescence signal on an EnVision multimode plate reader (Perkin Elmer, Waltham, MA). Rupintrivir was used as positive control and DMSO was used as negative control. Values were normalized to the positive and negative controls (as 0% and 100% replication, respectively) and data was fitted using non-linear regression analysis by Gilead's dose response tool. The EC50 value for each compound was defined as the concentration reducing viral replication by 50%.

[2] = GI S9 stability, rat, Example Y; type: in vitro ADME; conditions: pooled intestinal S9 fractions; rat intestinal S9, 1.0 mg/mL protein, 2 μM compound, pH 7.4; read-out: GIS9 Rat T½ (per Ex. Y)
Procedure: (§5) Example Y: GI S9 Stability Data
(§6) Stock solutions of test compounds in dimethyl sulfoxide (DMSO) having a final concentration of 10 mM were prepared and used in all experiments. Sekisui XenoTech (Kansas City, KS) provided pooled intestinal S9 fractions. All other chemicals were purchased from Sigma-Aldrich (St. Louis, MO) or VWR (West Chester, PA). Internal Standard/Quench (IS/Q) used to stop reactions was 100 nM labetalol in (by volume) methanol (10%) and acetonitrile (90%).
(§7) Stability in Intestinal S9 Fractions: Duplicate aliquots of test compound or positive control substrate were added to S9 stock diluted with phosphate buffered saline (137 mM NaCl, 2.7 mM KCl, 10 mM phosphate buffer), pH 7.4, to obtain a protein concentration of 1.0 mg/mL. The metabolic reactions were initiated by the addition of the substrates to the S9 reaction mixture to a final concentration of 2 μM. At 0, 10, 20, 30, 60 and 120 min, 25 μL aliquots of the reaction mixture were transferred to plates containing 225 μl of IS/Q solution. After quenching, the plates were centrifuged at 3000×g for 30 minutes. 150 μL aliquots of each supernatant were dried down then reconstituted with 300 μL water. Aliquots (10 μL) of the prepared samples were analyzed on a Thermo Q-Exactive mass spectrometer as described below.
(§8) Liquid Chromatography—Mass Spectrometry: Quantification of test compounds and control substrate was performed by analyte/internal standard peak area ratio (PAR) values measured on a Thermo Q-Exactive mass spectrometer coupled to a Dionex UltiMate 3000 HPLC with a Leap Technologies HTC PAL autosampler. The column used for analysis was a Waters Acquity BEH C18 (1.7 μm particle size, 2.1×50 mm). Mobile phase A consisted of 0.1% (v/v) formic acid in water. Mobile phase B consisted of 0.1% (v/v) formic acid in acetonitrile. Elution of analytes was achieved by a series of linear gradients varying the proportions of A and B. The mass spectrometer was calibrated on a weekly basis and mass tolerance of 5 ppm was used.
(§9) Metabolic stabilities in S9 fractions were determined by measuring the rates of disappearance of test compound and positive control substrate.
(§10) Data (% of substrate remaining) were plotted on a semi-log scale and fitted using an exponential decline model:
(§11) Ct=C0×e^−ln2/T1/2×t • Where Ct—% of substrate remaining at time=t; C0—% of substrate remaining at time=0; t—time; T1/2—half-life. • The Half-life (T1/2) is determined by the following equation: […]
(§12) Assuming a first-order reaction, the slope (k) is extrapolated from the aforementioned plotted data.

[3] = system: Human Rhinovirus 1B (HRV1B); assay: H1-HeLa HRV-CTG 384-well assay, HRV1B, Example X; type: cell-based; conditions: Rhinovirus A, 96 h; H1-HeLa cells, HRV1B MOI 0.5, 4 days, Celltiter-Glo; read-out: EC50 H1-HeLa_HRV 1B_HRV-CTG 384-well Assay (per Ex. X)
Excerpt: as §1, §2, §3, §4

[4] = GI S9 stability, human, Example Y; type: in vitro ADME; conditions: pooled intestinal S9 fractions; human intestinal S9, 1.0 mg/mL protein, 2 μM compound, pH 7.4; read-out: GIS9 Human T½ (per Ex. Y)
Procedure: as §5, §6, §7, §8, §9, §10, §11, §12

Compound	EC50 [1] [µM]	half-life at 2 μM [2] [min]	EC50 [3] [µM]	half-life at 2 μM [4] [min]
CCCCCCOC(=O)OC[C@@]1(C#N)O[C@@H](c2ccc3c(N)ncnn23)[C@H](O)[C@@H]1O [Compound 19, ((2R,3S,4R,5S)-5-(4-aminopyrrolo[2,1-f][1,2,4]triazin-7-yl)-2-cyano-3,4-dihydroxytetrahydrofuran-2-yl)methyl hexyl carbonate]	7	2	3.57	11
CCOC(=O)OC[C@@]1(C#N)O[C@@H](c2ccc3c(N)ncnn23)[C@H](O)[C@@H]1O [Compound 22, ((2R,3S,4R,5S)-5-(4-aminopyrrolo[2,1-f][1,2,4]triazin-7-yl)-2-cyano-3,4-dihydroxytetrahydrofuran-2-yl)methyl ethyl carbonate]	19.9	14	9.8	55
N#C[C@]1(COC(=O)OC2CC2)O[C@@H](c2ccc3c(N)ncnn23)[C@H](O)[C@@H]1O [Compound 23, ((2R,3S,4R,5S)-5-(4-aminopyrrolo[2,1-f][1,2,4]triazin-7-yl)-2-cyano-3,4-dihydroxytetrahydrofuran-2-yl)methyl cyclopropyl carbonate]	11.4	9	5.32	19
N#C[C@]1(COC(=O)O[C@@H]2C[C@@H]3C[C@@H]3C2)O[C@@H](c2ccc3c(N)ncnn23)[C@H](O)[C@@H]1O [Compound 39, ((2R,3S,4R,5S)-5-(4-aminopyrrolo[2,1-f][1,2,4]triazin-7-yl)-2-cyano-3,4-dihydroxytetrahydrofuran-2-yl)methyl ((1R,3r,5S)-bicyclo[3.1.0]hexan-3-yl) carbonate]	11.7	7	8.26	27
C[C@H]1CC[C@H](OC(=O)OC[C@@]2(C#N)O[C@@H](c3ccc4c(N)ncnn34)[C@H](O)[C@@H]2O)CC1 [Compound 40, ((2R,3S,4R,5S)-5-(4-aminopyrrolo[2,1-f][1,2,4]triazin-7-yl)-2-cyano-3,4-dihydroxytetrahydrofuran-2-yl)methyl ((1r,4R)-4-methylcyclohexyl) carbonate]	15.4	6	9.48	36
CCCOC(=O)OC[C@@]1(C#N)O[C@@H](c2ccc3c(N)ncnn23)[C@H](O)[C@@H]1O [Compound 9, ((2R,3S,4R,5S)-5-(4-aminopyrrolo[2,1-f][1,2,4]triazin-7-yl)-2-cyano-3,4-dihydroxytetrahydrofuran-2-yl)methyl propyl carbonate]	14.7	8	7.57	29
CC[C@H](C)OC(=O)OC[C@@]1(C#N)O[C@@H](c2ccc3c(N)ncnn23)[C@H](O)[C@@H]1O [Compound 4, ((2R,3S,4R,5S)-5-(4-aminopyrrolo[2,1-f][1,2,4]triazin-7-yl)-2-cyano-3,4-dihydroxytetrahydrofuran-2-yl)methyl ((S)-sec-butyl) carbonate]	22.2	10	11.2	65
CCCOCCOC(=O)OC[C@@]1(C#N)O[C@@H](c2ccc3c(N)ncnn23)[C@H](O)[C@@H]1O [Compound 34, ((2R,3S,4R,5S)-5-(4-aminopyrrolo[2,1-f][1,2,4]triazin-7-yl)-2-cyano-3,4-dihydroxytetrahydrofuran-2-yl)methyl (2-propoxyethyl) carbonate]	14	11	7.31	108
CC[C@@H](C)OC(=O)OC[C@@]1(C#N)O[C@@H](c2ccc3c(N)ncnn23)[C@H](O)[C@@H]1O [Compound 10, ((2R,3S,4R,5S)-5-(4-aminopyrrolo[2,1-f][1,2,4]triazin-7-yl)-2-cyano-3,4-dihydroxytetrahydrofuran-2-yl)methyl ((R)-sec-butyl) carbonate]	35.7	13	18.1	104
CC(C)COC(=O)OC[C@@]1(C#N)O[C@@H](c2ccc3c(N)ncnn23)[C@H](O)[C@@H]1O [Compound 8, ((2R,3S,4R,5S)-5-(4-aminopyrrolo[2,1-f][1,2,4]triazin-7-yl)-2-cyano-3,4-dihydroxytetrahydrofuran-2-yl)methyl isobutyl carbonate]	7.6	7	5.16	29
N#C[C@]1(COC(=O)OC2CCOCC2)O[C@@H](c2ccc3c(N)ncnn23)[C@H](O)[C@@H]1O [Compound 12, ((2R,3S,4R,5S)-5-(4-aminopyrrolo[2,1-f][1,2,4]triazin-7-yl)-2-cyano-3,4-dihydroxytetrahydrofuran-2-yl)methyl (tetrahydro-2H-pyran-4-yl) carbonate]	27.2	58	10	789
CC[C@H](C)COC(=O)OC[C@@]1(C#N)O[C@@H](c2ccc3c(N)ncnn23)[C@H](O)[C@@H]1O [Compound 28, ((2R,3S,4R,5S)-5-(4-aminopyrrolo[2,1-f][1,2,4]triazin-7-yl)-2-cyano-3,4-dihydroxytetrahydrofuran-2-yl)methyl ((S)-2-methylbutyl) carbonate]	8.73	4	3.53	18
N#C[C@]1(COC(=O)O[C@@H]2CCOC2)O[C@@H](c2ccc3c(N)ncnn23)[C@H](O)[C@@H]1O [Compound 24, ((2R,3S,4R,5S)-5-(4-aminopyrrolo[2,1-f][1,2,4]triazin-7-yl)-2-cyano-3,4-dihydroxytetrahydrofuran-2-yl)methyl ((R)-tetrahydrofuran-3-yl) carbonate]	10.2	47	6.75	178
